Measurements as given in PMC6150007 (Molecules : A Journal of Synthetic Chemistry and Natural …, 2017).
≈ marks a conversion by molar mass, not a printed value. Where two headings read alike, the source gives them in different places. Blank lines part the entries; values can stand above or below the compound they belong to.

Columns and labels:
in vitro = conditions: PAMPA
Experimental: (§5) The HPLC system consisted of an Agilent 1200 series HPLC system with a binary gradient pump, autosampler and vacuum degasser coupled to an Agilent 1200 series variable-wavelength detector (Santa Clara, CA, USA). The analyses were carried out with Venusil XBP C18 column (4.60 mm × 150 mm, 5 μm, Bonna-Agela Technologies, Wilmington, DE, USA). […] The effluent was monitored at 276 nm. […] The effluent was monitored at 280 nm. A volume of 20 µL of the samples was injected into the HPLC system.
(§6) The precoated parallel artificial membrane permeability assay (PAMPA) plate system was obtained from BD Biosciences. Prior to use, the pre-coated PAMPA plates were warmed to room temperature for at least 30 min. Once warmed to room temperature, the plate system was used within 24 h. A volume of 300 µL of the test compound solution in potassium phosphate buffer (100 mM, pH 6.4, 7.4 and 7.8) or in sodium acetate buffer (50 mM, pH 3.7, 4.7 and 5.7) was added per well in the receiver/donor plate (bottom). The final concentration of the test compounds was 200 µM in each well. A volume of 200 µL of potassium phosphate buffer (100 mM, pH 6.4, 7.4 and 7.8) or sodium acetate buffer (50 mM, pH 3.7, 4.7 and 5.7) was then added per well to the filter/acceptor plate (top). The filter plate was placed on the receiver plate by slowly lowering the precoated PAMPA plate until it was seated on the receiver plate. The assembly was incubated at room temperature for 5 h. The precoated PAMPA plate and the receiver plate were separated. The compound concentrations were determined using the HPLC system described above. The permeability values are given as mean ± standard deviation of triplicate determinations [38].

[1] = PAMPA, 5 h, 200 µM
Experimental: as §5, §6

HeLa cells = assay: MTT cell viability assay; assay type: cell-based, human; conditions: 100 µM, 24 h
Excerpt: (§1) For this purpose, the MTT cell viability assay was used. The MTT assay is a standard cell viability assay, measuring mitochondrial activity in live (metabolically viable) cells. Metabolically active mitochondria in viable cells have the ability to reduce MTT to coloured formazan crystals that can be quantitated spectrophotometrically. The presence of a toxic agent will reduce cell viability and thus limit the reduction of MTT to the formazan product. For this study, HeLa cells were selected. This selection was based on the high growth rate of HeLa cells and on the observation that these cells are frequently used to measure cell viability in the presence of toxic agents.
(§2) HeLa cells were maintained in 250 cm^2 flasks in 30 mL Dulbecco’s Modified Eagle Medium (DMEM) containing 10% fetal bovine serum, 1% penicillin (10,000 units/mL)/streptomycin (10 mg/mL) and 0.1% fungizone (250 µg/mL). The cells were incubated at 37 °C in an atmosphere of 10% CO2. Once confluent, the cells were seeded at 500,000 cells/well in 24-well plates and incubated for 24 h. A volume of 3 mL trypsin/EDTA (0.25%/0.02%) was used to facilitate cell detachment and the counting of cells was done with a haemocytometer. The wells were subsequently rinsed with 0.5 mL DMEM containing no fetal bovine serum. A volume of 0.99 mL DMEM (containing no fetal bovine serum) was subsequently added to each well followed by 10 µL of the test drug. Stock solutions of the test drugs were prepared in deionised water and sterilised via a 0.22 µm syringe filter. In each 24-well plate, wells were reserved as positive controls (100% cell death via lyses with 0.3% formic acid) and negative controls (0% cell death as a result of no treatment). The well-plates were incubated for a further 24 h after which the culture medium was aspirated from the cells. The wells were washed twice with 0.5 mL/well phosphate-buffered saline (PBS) and 200 µL of 0.05% MTT reagent (3-(4,5-dimethylthiazol-2-yl)-2,5-diphenyltetrazolium bromide) in PBS was added to each well. The well-plates were incubated at 37 °C for 2 h in the dark, the MTT reagent was aspirated from the wells and 250 µL isopropanol was added to each well. The well-plates were then incubated at room temperature for 5 min to dissolve the purple formazan crystals, whereafter 100 µL of the isopropanol phase was transferred to a 96-well plate. The absorbance of each isopropanol phase was measured spectrophotometrically at 560 nm.

MTT cell viability assay = assay type: cell-based, human; conditions: human, HeLa cells, read-out: percentage of viable cells remaining
Excerpt: as §1, §2

[2] = tested on: striatal monoamines and metabolites; conditions: for concentration reached in the brain: mouse, in vivo
Experimental: The delivery of dopamine by the prodrug was thus indirectly assessed by measuring dopamine levels in the striatal tissue of mice following treatment with the prodrug. For this purpose, the measurement of dopamine metabolites and other monoamine neurotransmitters and their metabolites was also included. […] Another four groups (n = 3 mice/group) were treated in the same manner by intraperitoneal injection. The animals were sacrificed 60 min after treatment, the striata were dissected and the concentrations of dopamine, 3,4-dihydroxyphenylacetic acid (DOPAC), homovanillic acid (HVA), noradrenaline, serotonin and 5-hydroxyindoleacetic acid (HIAA) were measured [40].
Male C57BL/6 mice were weighed and allocated into 4 groups of 3 mice each. […] A second set of 4 groups (n = 3) were treated in the same manner by intraperitoneal injection. All solutions were prepared in sterile saline and administered at volumes of 0.1 mL for oral gavage and 0.2 mL for intraperitoneal injection. The animals were euthanised 60 min after treatment and the striata were dissected and stored at −80 °C until the day of the experiment. The concentrations of dopamine, 3,4-dihydroxyphenylacetic acid (DOPAC), homovanillic acid (HVA), noradrenaline, serotonin and 5-hydroxyindoleacetic acid (5-HIAA) were determined according to the published protocol, and are reported as mean ± standard deviation of each group [40]. Prism version 5 (GraphPad Software, San Diego, CA, USA) was used for the statistical analyses and for the preparation of graphical presentations. Data were analysed by one-way analysis of variance (ANOVA) across all groups, and were subsequently subjected to the Dunnett’s post-hoc test to determine statistical differences between the means. A p-value of <0.05 indicates a statistically significant difference.

[3] = cited from earlier work
[4] = design: method as in PMID 19930170; conditions: mice; oral administration of L-dopa and carbidopa; cited from earlier work
[5] = design: method as in PMID 20646792; conditions: after oral administration of L-dopa prodrugs to rats; cited from earlier work
[6] = Plasma stability, human plasma; assay type: in vitro ADME; conditions: 37 °C, approx. 200 µM spiked
Experimental: (§3) The effluent was monitored at 276 nm. […] The effluent was monitored at 280 nm.
(§4) Plasma was collected in 0.5 mL MiniCollect® heparin plasma tubes (Greiner Bio-One, Kremsmünster, Austria) and centrifuged at 5500 rpm. Liver and brain tissue were collected, placed on ice and rinsed with 0.25 M sucrose dissolved in water. Sucrose solution was added to the tissue at a ratio 1:3 (w/v), the tissues were cut into small pieces using scissors and homogenised by 2 passes (60 s each) using a Potter–Elvehjem homogeniser (1200 rev/min, Potter–Elvehjem, Kennesaw, GA, USA). Care was taken to cool the homogeniser in ice during this procedure. […] The stock solution was immediately diluted to approximately 200 µM into plasma or tissue homogenate (preheated to 37 °C) and the resulting mixtures were analysed by the HPLC method described above. For this purpose, 100 µL of the spiked plasma or tissue homogenate was added to 300 µL acetonitrile (containing formic acid 1%) in a Phree tube. The tube was vortexed for 2 min and filtered under vacuum (9–10 mmHg). The collected solvent was evaporated under a stream of air, and the residue was redissolved in 100 µL methanol. A volume of 300 µL water was added and 20 µL of the resulting solution was analysed by the HPLC system. […] The concentration of lazabemide was also determined.

[7] = Plasma stability, rat plasma; assay type: in vitro ADME; conditions: 37 °C, approx. 200 µM spiked
Experimental: as §3, §4

[8] = Shake-flask logD determination (n-octanol/buffer); conditions: n-octanol/potassium phosphate buffer 100 mM
Experimental: (§7) n-Octanol (analytical reagent from Sigma-Aldrich) and the appropriate buffer were mutually saturated in a separatory funnel. Potassium phosphate buffer (100 mM) at pH 6.4, 7.4 and 7.8 served as the aqueous buffer phases. […] The vessels were shaken by hand for 5 min and centrifuged at 4000× g for 10 min. […] The logD value at a given pH is equal to the logarithm of the octanol/buffer partition coefficients (D). […] LogD values are given as mean ± standard deviation of triplicate determinations. Using the same protocol as above, the logD values at pH 6.4, 7.4 and 7.8 for lazabemide were also determined.

[9] = Solubility in water and potassium phosphate buffer; assay type: physicochemical; conditions: thermodynamic from solid, 37 °C
Experimental: This yielded a theoretical concentration of 6.0 mg/mL. The tubes were agitated for 24 h in a water bath at 37 °C and were subsequently centrifuged at 16,000× g for 10 min. The samples were filtered through a 0.22 µm syringe filter and diluted 150-fold into water or potassium phosphate buffer (100 mM, pH 7.4). The absorbances of the resulting solutions were recorded at a wavelength of maximal absorbance of 276 nm.

[10] = Ionisation constant (pKa) by potentiometric titration; assay type: physicochemical
Experimental: The prodrug was titrated in 0.1 mL increments and the pH was recorded after each addition. A total of 1 mL KOH was added to fully neutralise the primary amine group of the prodrug. The results were subsequently tabulated according to the method described in literature, and the pKa value was calculated.

[11] = Chemical stability in aqueous buffer (HPLC); assay type: physicochemical; conditions: 50 µM, room temperature
Experimental: as §3
The stock solution was immediately diluted to 50 µM and the resulting solution was analysed by the HPLC method described above. The first injection served as reference point, after which the same solution was again injected at 1 h, 3 h, 6 h, 9 h and 11 h. During this time, the test solution remained at room temperature in the autosampler tray. The stabilities of the prodrug in the selected buffer phases are reported as the percentage mean ± standard deviation of the first injection, which served as reference point.

[12] = Tissue stability, rat liver homogenate; assay type: in vitro ADME; conditions: 37 °C
Experimental: as §3, §4

brain MAO-B = conditions: cited from earlier work

Experimental for physchem: as §7

Papp at 5 h, 200 µM (in vitro; pH 3.7): 0.0102 ×10⁻⁶ cm/s
Papp at 5 h, 200 µM (in vitro; pH 4.7): 0.00891 ×10⁻⁶ cm/s
Papp at 5 h, 200 µM (in vitro; pH 5.7): 0.00603 ×10⁻⁶ cm/s
Papp at 5 h, 200 µM (in vitro; pH 6.4): 0.0024 ×10⁻⁶ cm/s
Papp at 5 h, 200 µM (in vitro; pH 7.4): 0.00676 ×10⁻⁶ cm/s
Papp at 5 h, 200 µM (in vitro; pH 7.8): 0.00275 ×10⁻⁶ cm/s
logPe [1]: smaller than −7.99
concentration reached in the brain [2]: too low to be reliably detected
Structure (SMILES): N[C@@H](Cc1ccc(O)c(O)c1)C(=O)O [L-Dopa]
percentage of viable cells remaining (HeLa cells): 79.3 ± 13.0%
viability at 24 h, 1 µM (MTT cell viability assay): 102 ± 4.19%
viability at 24 h, 10 µM (MTT cell viability assay): 105 ± 5.24%
viability at 24 h, 100 µM (MTT cell viability assay): 79%
half-life [3]: approximately 90 min
fraction of the administered oral dose reaching the brain unchanged ([3]; oral, estimated): less than 1%
time to peak plasma levels [4]: 30 to 60 min
plasma half-life of L-dopa [5]: 0.85 to 1.62 h

prodrug concentration remaining ([6]; 17 h): 64 to 68 µM
stability in plasma ([6]; up to 8 h): stable
prodrug concentration remaining ([7]; 17 h): 70.5 µM
stability in plasma ([7]; up to 8 h): relatively stable
logD ([8]; n-octanol/potassium phosphate buffer, pH 7.4, LogD, pH 7.4): 0.199 ± 0.002
logD ([8]; n-octanol/potassium phosphate buffer, pH 7.8, LogD, pH 7.8): 0.319 ± 0.003
logD ([8]; pH 6.4): < 0
logD ([8]; pH 6.4, listed as Prodrug): –4.58 ± 0.002
Papp at 5 h, 200 µM (in vitro; pH 3.7): 0.00955 ×10⁻⁶ cm/s
Papp at 5 h, 200 µM (in vitro; pH 4.7): 0.0155 ×10⁻⁶ cm/s
Papp at 5 h, 200 µM (in vitro; pH 5.7): 0.0195 ×10⁻⁶ cm/s
Papp at 5 h, 200 µM (in vitro; pH 6.4): 0.0195 ×10⁻⁶ cm/s
Papp at 5 h, 200 µM (in vitro; pH 7.4): 0.0295 ×10⁻⁶ cm/s
Papp at 5 h, 200 µM (in vitro; pH 7.8): 0.0468 ×10⁻⁶ cm/s
solubility at 24 h ([9]; aqueous buffer, potassium phosphate buffer pH 7.4, 6000 μg/mL theoretical, 24 h, read-out: Solubility, Amount Measured): 6140 ± 730 µg/mL (≈ 16.2 mM)
solubility at 24 h ([9]; water, 6000 μg/mL theoretical, 24 h, read-out: Solubility, Amount Measured): 6280 ± 747 µg/mL (≈ 16.6 mM)
solubility at 24 h ([9]; water and potassium phosphate buffer, aqueous buffer, water and buffer pH 7.4, read-out: minimum solubility): ≥ 6000 µg/mL
concentration reached in the brain [2]: too low to be reliably detected
pKa ([10]; amine group, titration with KOH in water): 7.25 ± 0.16
fraction existing as neutral uncharged species ([10]; pH 5.5): 1–2%
fraction existing as neutral uncharged species ([10]; pH 7.4): approximately 59%
chemical stability in aqueous buffer ([11]; pH 3.7–7.4, up to 11 h): stable
prodrug concentration remaining ([11]; pH 7.8, 11 h, relative to first injection): 90.3%
half-life at 200 µM ([12]; approximate, read-out: t½): ~1 h
prodrug remaining ([12]; 4 h incubation): 37%
Structure (SMILES): N[C@@H](Cc1ccc(O)c(O)c1)C(=O)NCCNC(=O)c1ccc(Cl)cn1 [L-dopa–lazabemide prodrug]
percentage of viable cells remaining (HeLa cells): 34.9 ± 7.94%
viability at 24 h, 1 µM (MTT cell viability assay): 112 ± 12%
viability at 24 h, 10 µM (MTT cell viability assay): 52.1 ± 14%
viability at 24 h, 100 µM (MTT cell viability assay): 35%
striatal DOPAC levels ([2]; 63.5 µmol/kg intraperitoneal, 60 min, vs saline): significant reduction
striatal serotonin and 5-HIAA levels ([2]; 63.5 µmol/kg oral gavage or ip, 60 min): not altered
striatal dopamine levels ([2]; 63.5 µmol/kg oral gavage or ip, 60 min, vs saline): does not enhance

Papp at 5 h, 200 µM (in vitro; pH 3.7): 0.0427 ×10⁻⁶ cm/s
Papp at 5 h, 200 µM (in vitro; pH 4.7): 0.0871 ×10⁻⁶ cm/s
Papp at 5 h, 200 µM (in vitro; pH 5.7): 0.148 ×10⁻⁶ cm/s
Papp at 5 h, 200 µM (in vitro; pH 6.4): 0.355 ×10⁻⁶ cm/s
Papp at 5 h, 200 µM (in vitro; pH 7.4): 1.62 ×10⁻⁶ cm/s
Papp at 5 h, 200 µM (in vitro; pH 7.8): 2.14 ×10⁻⁶ cm/s
logD (physchem; pH 6.4, LogD): -1.18
logD (physchem; pH 7.4, LogD): -0.68
logD (physchem; pH 7.8, LogD): -0.63
concentration reached in the brain [2]: too low to be reliably detected
Structure (SMILES): NCCNC(=O)c1ccc(Cl)cn1 [Lazabemide]
time for enzyme activity to return to baseline after drug discontinuation (brain MAO-B; MAO-B): ≤ 36 h
inhibition of brain MAO-B (brain MAO-B; at least 0.4 mg/kg every 12 h, patients with early Parkinson’s disease): > 90%
